Patent publication US20190169181A1, “FUMAGILLOL COMPOUNDS AND METHODS OF MAKING AND USING SAME” (Zafgen, Inc., priority 2016, published 2019)
pIC50: −log10 of the molar value. Counter-ions that a name gives are not always drawn.

What was measured:
[1] = tested on: Diet Induced Obese (DIO) C57BL/6 mice; assay: 10 day DIO mouse model, weight loss vs. vehicle; type: in vivo; details: 240 h
Summary of the method: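 Male DIO C57BL/6 mice on 60% fat diet, vehicle-acclimated 3 days, then given compound at 0.3 or 1.0 mg/kg SC (10% DMSO in water) once daily for 10 days. Body weight and food intake recorded daily; weight loss versus vehicle, with hematology and blood chemistry on Day 11.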

[2] = tested on: rat DIO model (Sprague Dawley rats on 45% High Fat diet); assay: 11 day rat DIO model, weight loss vs. vehicle; type: in vivo; details: for Rat @ 0.3 mpk sc (%) weight loss vs. vehicle: 0.3 mpk sc once a day for 11 days; for Rat @ 1.0 mpk sc (%) weight loss vs. vehicle: 1.0 mpk sc once a day for 11 days
From the text: The objective of this study design is to investigate the efficacy of disclosed compounds in an 11 day rat DIO model used to screen compounds for pharmacologic efficacy on endpoints related to obesity and metabolism. Effects on body weight, food intake, hematology and blood chemistries were the primary readouts of this study design. Male Sprague Dawley rats, approximately 8 weeks of age, were ordered from a certified vendor and housed on irradiated corncob bedding in micro-isolator cages, on a 12-hour light-dark cycle (0700-1900) at 68-74° F. and 30-70% humidity. Rats were fed Research Diets D12451 (45% High Fat) and provided water ad libitum. Rats were received and housed in the facility for at least two or three weeks prior to start of test article administration. On Day −4 or −3, rats were randomized into study groups based on body weight and body weights were continued to be recorded daily for the duration of the study. Daily food intake was assessed starting on Study Day −2 by weighing the hopper including the food to avoid loss of food in transfer.
Compounds were formulated into a 100% DMSO stock (at 9 mg/mL) prior to the start, and further diluted into the target working concentration using the vehicle of 10% DMSO in water. Prior to test article administration, starting on Day −3 a dosing acclimation occurred with all animals receiving a subcutaneous injection of vehicle (10% DMSO) only for 3 days. Starting on Day 1, test compounds or vehicle were administered based on individual body weight, subcutaneously, once a day for 11 days. All animals were sacrificed on Day 11, approximately 2 hours following the final dosing on Day 11. After sacrifice, whole blood was collected and analyzed for hematology and blood chemistry parameters.
Compounds were tested for weight loss vs. vehicle at 0.3 and 1.0 mpk sc (mg per kg animal weight delivered subcutaneously), and the results are shown in Table 2 below.

recombinant human MetAP2 = target: T1, recombinant human MetAP2 (Homo sapiens, UniProt P50579); assay: Recombinant human MetAP2 enzyme inhibition assay (MAS peptide / amino acid oxidase / Amplex Ultrared readout); type: biochemical; details: Flag tagged human recombinant MetAP2, 25 minutes at 25° C.
T1 construct: Flag; made in house
T1 sequence (P50579 whole entry): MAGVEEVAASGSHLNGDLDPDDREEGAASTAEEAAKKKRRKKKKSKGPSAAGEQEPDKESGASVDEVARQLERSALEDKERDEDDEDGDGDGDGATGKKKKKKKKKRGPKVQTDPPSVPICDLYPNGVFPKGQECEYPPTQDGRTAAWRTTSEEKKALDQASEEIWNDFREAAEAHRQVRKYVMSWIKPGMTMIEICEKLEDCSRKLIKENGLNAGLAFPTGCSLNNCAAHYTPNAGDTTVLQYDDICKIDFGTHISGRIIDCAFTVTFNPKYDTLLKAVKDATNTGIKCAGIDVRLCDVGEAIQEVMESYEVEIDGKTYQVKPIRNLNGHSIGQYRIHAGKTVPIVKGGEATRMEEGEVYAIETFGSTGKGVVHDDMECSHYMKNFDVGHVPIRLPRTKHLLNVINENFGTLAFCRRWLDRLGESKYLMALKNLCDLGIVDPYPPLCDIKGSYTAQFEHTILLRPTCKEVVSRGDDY

CO[C@@H]1[C@H](OC(=O)N[C@@H](Cc2noc(=O)[nH]2)C(C)C)CC[C@]2(CO2)[C@H]1[C@@]1(C)O[C@@H]1CC=C(C)C [Example 27, (3R,4S,5S,6R)-5-methoxy-4-((2R,3R)-2-methyl-3-(3-methylbut-2-enyl)oxiran-2-yl)-1-oxaspiro[2.5]octan-6-yl (S)-3-methyl-1-(5-oxo-4,5-dihydro-1,2,4-oxadiazol-3-yl)butan-2-ylcarbamate]
inhibition in vivo at 1 mg/kg ([1]; 1.0 mpk sc once a day for 10 days): 5.4% | Rat @ 0.3 mpk sc (%) weight loss vs. vehicle [2]: −0.8% | Rat @ 1.0 mpk sc (%) weight loss vs. vehicle [2]: 1.9% | pIC50 (recombinant human MetAP2): 6.30 to 7.30

CO[C@@H]1[C@H](OC(=O)N[C@@H](c2cn(C[C@H]3CCN(C)C3)cn2)C(C)C)CC[C@]2(CO2)[C@H]1[C@@]1(C)O[C@@H]1CC=C(C)C [Example 12, (3R,4S,5S,6R)-5-methoxy-4-((2R,3R)-2-methyl-3-(3-methylbut-2-enyl)oxiran-2-yl)-1-oxaspiro[2.5]octan-6-yl (R)-2-methyl-1-(1-(((S)-1-methylpyrrolidin-3-yl)methyl)-1H-imidazol-4-yl)propylcarbamate formate]
inhibition in vivo at 0.3 mg/kg ([1]; 0.3 mpk sc once a day for 10 days): 9.5% | Rat @ 0.3 mpk sc (%) weight loss vs. vehicle [2]: 12.9% | Rat @ 1.0 mpk sc (%) weight loss vs. vehicle [2]: 18.8% | pIC50 (recombinant human MetAP2): 6.30 to 7.30
